These results are taken from PubChem BioAssay AID1963849 (Molecular Pharmacology Branch, DTP, NCI, 2024).

“And” between values parts separate entries of the source, which are not always exact repeats. Equal values may be shown once.

In this assay the test system is 299254-011-R-J1-PDC complex spheroid viability. Briefly: Anticancer human tumor 299254-011-R-J1-PDC patient-derived melanoma cell line growth inhibition [POLQ]. The conditions noted are these: for viability, T/C: stronger effect = lower value; for IC50: curve of compound. On the procedure:
Multicellular complex tumor spheroid response to Polymerase (POL) inhibitors (novobiocin, ART-558, RP6685) in combination with a variety of drugs and investigational agents in selected tumor cell lines
The POL inhibitors (novobiocin, ART-558, and RP6685) were evaluated both individually and in combination with standard of care and investigational anticancer small molecules within a complex spheroid model of solid tumors. . Complex spheroids include a stromal component modeled by human endothelial cells (HUVEC) and fibroblasts modeled by human mesenchymal stem cells (MSCs). The concentration ranges selected for each drug and investigational agent were based upon clinically achievable concentrations if the clinical Cmax of the agent was known.
Compounds. The drugs and investigational agents: novobiocin (NSC847541), ART-558 (NSC835418), RP-6685 (NSC848927), peposertib (NSC802822), ceralasertib (NSC780249), elimusertib (NSC800525), camonsertib (NSC841442), AZD-1390 (NSC803789), olaparib (NSC753686), talazoparib (NSC767125), rucaparib (NSC756644), sotorasib (NSC818433), MRTX-1133 (NSC836407), SN-38 (NSC673596), topotecan (NSC609699), epotoside (NSC141540), doxorubicin (NSC123127), gemcitabine (NSC613327), 5-fluorouracil (NSC19893), paclitaxel (NSC125973), vemurafenib (NSC761431), MSA-2 (NSC828583), SN-011 (NSC837082), adavosertib (NSC754352), prexasertib (NSC758257), carboplatin (NSC241240) and oxaliplatin (NSC266046), were obtained from the National Cancer Institute (NCI) Developmental Therapeutics Program Chemical Repository (21). The FDA-approved anticancer drug set is available from the Developmental Therapeutics Program at https://dtp.cancer.gov/organization/dscb/obtaining/. […] The stock solutions were prepared in dimethyl sulfoxide (DMSO, Sigma-Aldrich, St. Louis, MO, cat. D2650), except for the platinum compounds which were prepared in saline (Quality Biological, Gaithersburg, MD, cat. 114-055-101), at 800-fold the tested concentration and stored at -70 degrees C prior to their use. All drugs and investigational agents were tested over a range starting from a high concentration at or near the clinical Cmax and decreasing in half-log increments. If the clinical Cmax for an agent had not been determined, the highest concentration tested was 10 microM, except for SN-38, which was tested at a high concentration of 1 microM.
Cell Culture. All cells were maintained in an incubator at 37 degrees C and 5% CO2 with 95% humidity. The PDC lines were cultured according to standard operating procedures established by the NCI PDMR (https://pdmr.cancer.gov). Table 3 of the manuscript, lists the cell lines along with the number of the three cell types plated to form the mct-spheroids and media for tumor cell growth. After thawing, all PDC lines, except 997537-175-T-J1-PDC and 415267-285-R-J2-PDC, were cultured in Matrigel-coated flasks prepared with a working solution of 1X Ham's F-12 nutrient mix, without supplementation (Thermo Fisher Scientific, cat. 11765054), 100 U/mL penicillin-streptomycin (Thermo Fisher Scientific, cat. 15140122), and 2.5% Matrigel (Corning Inc., Corning, NY, cat. 354248) for the first three passages. The two PDC lines 997537-175-T-J1-PDC and 415267-285-R-J2-PDC were cultured on uncoated flasks. The 857933-349-R-J2-PDC line was cultured in 6C/Colon 1B media containing advanced DMEM/F-12 (Thermo Fisher Scientific, cat. 12634028), 10 mM HEPES (Thermo Fisher Scientific, cat. 15630080), 1X GlutaMAX supplement (Thermo Fisher Scientific, cat. 35050061), 0.1 mg/mL primocin (InvivoGen, San Diego, CA, cat. ant-pm-2), 10% defined fetal bovine serum, heat inactivated (HyClone Laboratories Inc., Logan, UT, cat. SH30070.03HI), 50% L-WRN conditioned media (ATCC, cat. CRL-3276), 1.25 mM N-Acetyl-L-cysteine (Sigma-Aldrich, cat. A9165), 10 mM nicotinamide (Sigma-Aldrich, cat. N0636), 1X B-27 supplement (Thermo Fisher Scientific, cat. 17504044), 1X N-2 supplement (Thermo Fisher Scientific, cat. […]
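Also: spheroids exposed to drugs for one week before measurement.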
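For viability, T/C in this document: percent viability relative to DMSO vehicle control taken as 100%.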

With `CCCS(=O)(=O)Nc1ccc(F)c(C(=O)c2c[nH]c3ncc(-c4ccc(Cl)cc4)cc23)c1F`, the IC50 is > 10000 nM and 9540 nM. Moreover, the viability, T/C (compound 0.0316 µM) was 114% and 106% and 96.5%. For the setting “compound 0.1 µM”, the viability, T/C is 99.7% and 109% and 112%. For the same compound, for the setting “compound 0.316 µM”, the viability, T/C was 118% and 95.7% and 123%. In addition, the viability, T/C (compound 1 µM) is 102% and 122% and 117%. Besides, the viability, T/C (compound 3.16 µM) is 109% and 107% and 120%. The viability, T/C (compound 10 µM) was 50.6% and 47.5% and 69.2%.

As to `CCc1c2c(nc3ccc(O)cc13)-c1cc3c(c(=O)n1C2)COC(=O)[C@]3(O)CC`, the half-maximal inhibitory concentration (IC50) is greater than 1000 nM. Further, where the note is “compound 0.00316 µM”, the viability, T/C was 94.6% and 92.7% and 99.2%. Besides, the viability, T/C (compound 0.01 µM) was 89.3% and 93.2% and 77.9%. Also, the viability, T/C (compound 0.0316 µM) was 75.9% and 72.8% and 82%. Further, the viability, T/C (compound 0.1 µM) is 67.9% and 81.2% and 60.7%. Where the note is “compound 0.316 µM”, the viability, T/C is 69.4% and 75.8% and 59.4%. Besides, the viability, T/C (compound 1 µM) is 51.7% and 59.2% and 59.4%.

Consider `CC1COCCN1c1cc(C2(O)CC3CCC(C2)O3)c2cnn(-c3ccn[nH]3)c2n1` (configuration not stated), for which the half-maximal inhibitory concentration (IC50) is 190 nM and 182 nM and 159 nM. In addition, the viability, T/C (compound 0.0316 µM) is 84.1% and 85.2% and 80.8%. The viability, T/C (compound 0.1 µM) is 66.5% and 64.7% and 57.4%. Also, the viability, T/C (compound 0.316 µM) is 34.4% and 36.9% and 39.6%. Under “compound 1 µM”, the viability, T/C was 26.3% and 17.9% and 25.1%. Further, the viability, T/C (compound 3.16 µM) is 14.4% and 15.1% and 20.3%. Besides, the viability, T/C (compound 10 µM) was 8.87% and 10.7% and 12.4%.

In the case of `CC[C@@]1(O)C(=O)OCc2c1cc1n(c2=O)Cc2cc3c(CN(C)C)c(O)ccc3nc2-1`, the half-maximal inhibitory concentration (IC50) is greater than 100 nM. The viability, T/C (compound 0.000316 µM) was 98.9% and 101% and 112%. In addition, for the setting “compound 0.001 µM”, the viability, T/C was 94.2% and 113% and 101%. Further, under “compound 0.00316 µM”, the viability, T/C is 106% and 89.5% and 111%. The viability, T/C (compound 0.01 µM) is 103% (2×) and 114%. Also, for the setting “compound 0.0316 µM”, the viability, T/C was 107% and 108% and 94.4%. The viability, T/C (compound 0.1 µM) is 78.4% and 81.1% and 72.7%.

In the case of `CC1COCCN1c1cc(-c2ccnn2C)c2ccnc(-c3ccn[nH]3)c2n1` (configuration not stated), the IC50 is 255 nM and 265 nM and 320 nM. In addition, the viability, T/C (compound 0.0316 µM) is 96.6% and 111% and 99%. The viability, T/C (compound 0.1 µM) is 67.8% and 70% and 78.4%. The viability, T/C (compound 0.316 µM) is 46.7% and 46.5% and 50.2%. The viability, T/C (compound 1 µM) was 30.8% and 31.4% and 31.7%. Moreover, the viability, T/C (compound 3.16 µM) is 21.6% and 31.1% and 23.9%. Besides, the viability, T/C (compound 10 µM) is 18.8% and 20.6% and 22.7%.

On to `CCc1cc2c(N3CCc4c(cc(Cn5ccnc5)cc4-c4cn(C)nc4C(F)(F)F)C3=O)ccnc2c(OC)n1`, for which the half-maximal inhibitory concentration (IC50) is greater than 10000 nM. For the same compound, the viability, T/C (compound 0.0316 µM) is 97% and 108% and 110%. In addition, where the note is “compound 0.1 µM”, the viability, T/C was 105% and 116% and 102%. For the same compound, the viability, T/C (compound 0.316 µM) was 96.3% and 113% and 109%. For the same compound, where the note is “compound 1 µM”, the viability, T/C is 93.1% and 100% and 93.5%. Also, the viability, T/C (compound 3.16 µM) was 98% and 90.8% and 98.3%. In addition, the viability, T/C (compound 10 µM) was 84.2% and 82% and 82.5%.

What is called viability, T/C is the ratio of treated to control. Broadly, the IC50 is the concentration needed to halve the response being measured.
